Consider `O=C(c1cc2ccnc(Cl)c2[nH]1)N1CCOCC1`, for which the melting point lay within 170 to 171 °C.
As to `N#CCc1c(Cl)ccc2cc(Cl)cnc12`, the melting point is 152 °C.
Molecule `COC(=O)NC1=NCC(c2cccc3ccccc23)N1C` (configuration not stated) returned a melting point of 187 to 190 °C.
In turn, `CC(C)(C)N1C(=O)[C@@H]2C[C@H]1CN2C(=O)[C@@H](O)[C@H](Cc1ccccc1)NC(=O)[C@H](CC(N)=O)NC(=O)OCc1ccccc1` showed a melting point of 112 to 115 °C.
The figure for `C[C@H](NC(=O)[C@H](Cc1ccccc1)NC(=O)OCc1ccccc1)C(=O)O` is 160 to 164 °C; for `C=CCC1C(=O)N(c2ccccc2)N(c2ccccc2)C1=O` it is 135 to 137 °C.
The figure for `COc1ccc2c(c1)C(Cc1ccnc(F)c1)(Cc1ccnc(F)c1)c1ccccc1-2` is 143 to 146 °C; for `CCNC(=O)n1nc(Oc2ncc(C(F)(F)F)cc2Cl)c(CC)c1C` it is 101 to 102 °C.
`CCCCNc1cc(CNC(C)=O)cc(S(N)(=O)=O)c1Oc1ccccc1`: the melting point lay in the range of 190 to 191 °C.
For the molecule `CC(C)(C)c1cc(OCC(=O)O)cc(C(C)(C)C)c1O`, the melting point is 172 to 173 °C.
Molecule `COc1ccc([C@@H]2CCc3cc(OC)ccc3[C@@H]2CCn2ccnc2)cc1` (relative stereo) returned a melting point of 121 °C.
Molecule `CCCCCCCC[C@@H](O)C(=O)Nc1c(SC)ccc2ncccc12` displayed a melting point of 119 to 120 °C.
Take `N#CCNC(=O)Cc1ccccc1`: the melting point fell in the range of 87 to 91 °C.
The figure for `CCOc1ccc2[nH]c(C(=O)O)cc2c1` is 180 °C; for `CC(=O)N1CC(=O)N(CCc2ccccc2)C(=O)C1` it is 130 °C.
Under `O=c1c2cc(-c3nnn[nH]3)ccc2sc2ncccc12` stands more than 300 °C.
`COCC(=O)N[C@H]1CC[C@H](CCN2CCN(c3nccc4c3CCO4)CC2)CC1` gave a melting point of 170 °C.
The figure for `CCCCCCOc1ccc(C(=O)O)cc1Cl` is 140 °C; for `COC(=O)c1sc2cc(CCl)ccc2c1C` it is 128 to 129 °C.
Regarding `O=C(O)Cn1cc(Cc2nc3cc(C(F)(F)F)ccc3s2)c2ccccc21`, the melting point lay within 233 to 234 °C.
Take `CN1Cc2c(C#CC3(O)CCCC3)ncn2-c2cccc(Cl)c2C1=O`: the melting point is 207 to 208 °C.
As to `COc1ccc2cc(C(=O)C(C)O[Si](C)(C)C)ccc2c1` (configuration not stated), the melting point was 72 to 75 °C.
Molecule `Cc1cc(C(N)=O)ncc1C(c1c(F)ccc(F)c1F)S(=O)(=O)c1ccc(C(F)(F)F)nc1` (configuration not stated) displayed a melting point of 237 to 238 °C.
The figure for `CCc1ccc(-c2c(Cl)c(CN3C(=O)CCC3=O)nc3sc4c(c23)CCNC4)cc1` is 157 to 158 °C; for `CCC(=O)Nc1cc(-n2cccn2)nc(-c2ccc(Cl)o2)n1` it is 189 to 190 °C.
The figure for `Cc1cccc2c3c(n(Cc4ccc(F)cc4)c12)CCCC3=O` is 154 to 155 °C; for `COc1ccc(C#CC(=Nc2ccc(OC)cc2)N2CCN(Cc3ccccc3)CC2)cc1` it is 161 °C; for `COc1cccc(Cn2c(C)c(CC(=O)O)c3cc(OCc4csc(-c5ccccc5)n4)ccc32)c1` it is 162 to 163 °C.
For `CC(C)(C)NC(=O)[C@@H]1CCCN1C(=O)[C@@H](O)[C@H](Cc1ccccc1)NC(=O)[C@H](CC(N)=O)NC(=O)COC1CCN(Cc2ccccc2)CC1`, the melting point was in the range of 94 to 103 °C.
The figure for `Nc1nccc(Oc2ccc3c(C(=O)Nc4ccc(F)c(C(F)(F)F)c4)cccc3c2)n1` is 205 °C; for `CN1C(=O)C(C(=N)c2ccccc2)=C(O)CC1c1ccccc1` (configuration not stated) it is 117 to 120 °C; for `Cc1ccc(C(=O)Nc2c(NC(=O)CN3CCC4(CC3)OCCO4)ccc3c2C(=O)c2ccccc2C3=O)cc1` it is 197 to 198 °C.
Under `CN(CCCNC(=NCCCOc1cccc(CN2CCCCC2)c1)NC#N)CCN(Cc1ccc(F)cc1)c1ccccn1` stands 65 to 68 °C; under `O=C(O)c1ccc(N2C(=O)c3ccc([N+](=O)[O-])cc3C2=O)cc1`, 331 to 332 °C; under `O=C(O)c1nc(-c2ccccc2Cl)nc2ccccc12`, 171 °C.
Turning to `Nc1ncnc2c1ncn2CC(=O)Nc1ccc(-n2nc(C(F)(F)F)cc2C2CC2)cc1`, the melting point is 249 to 252 °C.
The figure for `CC1CNC(c2n[nH]c(-c3ccc(Cl)cc3)c2-c2ccncc2)C(C)N1` (configuration not stated) is 236 to 238 °C; for `O=C(CCCCOc1ccc(-c2ccccc2)cc1)NO` it is 152 to 154 °C; for `CCOC(=O)Cc1cc(F)ccc1-c1ccccc1` it is 60.5 °C.
The figure for `Cc1[nH]c2ccc(F)cc2c1C(=O)Nc1ccc(Oc2ccccc2)c(C#N)c1` is 237 °C.
On to `CCNC(=O)Nc1ccc(Oc2ccc3nc(COc4ccc(CC5SC(=O)NC5=O)cc4)n(C)c3c2)cc1` (configuration not stated), for which the melting point lay within 227 to 230 °C.
The figure for `Fc1cc(F)cc(Cc2cccnc2S)c1` is 195 to 197 °C; for `COc1ccc(-c2cn3ccccc3n2)cc1` it is 131 to 134 °C; for `Cn1cc(C(=O)c2ccc3ccccc3c2)cc1C(=O)c1cccnc1` it is 132 to 133 °C.
As to `Cc1c(C)c2c(c(C)c1NC=O)CC(C)(CO)O2` (configuration not stated), the melting point was in the range of 149 to 150 °C.
Consider `CN1CCC(=C2c3c(ccn3C)CCn3cnnc32)CC1`, for which the melting point came to 214 °C.
Under `N=C(N)c1ccc2cc(OC(=O)C3CC3)ccc2c1` stands 214 to 217 °C.
Under `CCCCn1c(=O)c2c(ncn2S(=O)(=O)c2ccc(NO)cc2)n(CCCC)c1=O` stands 148 to 150 °C.
For `CCC1CCCCN1C(=O)Nc1ccccc1CCc1cc(C(C)(C)C)c(O)c(C(C)(C)C)c1` (configuration not stated), the melting point fell in the range of 137 to 138 °C.
Molecule `CCCn1c2ccccc2c2cc(C(=O)CC(C)=O)ccc21` had a melting point of 97 °C.
The figure for `CCOC(=O)Cc1nc2cc(OC)c(OC)cc2c(-c2ccc(OC)c(OC)c2)c1C(=O)OCC` is 146 to 147 °C; for `O=C(CCc1ccccc1)N[C@H](Cc1ccc(C(F)(F)F)cc1)[C@@H](O)c1ccc(Oc2ccccc2)cc1` (racemic) it is 133 to 134 °C.
Under `COc1c(C2CC2c2ccc(NS(C)(=O)=O)cc2)cc(N2CCC(=O)NC2=O)cc1C(C)(C)C` (configuration not stated) stands 265 to 266 °C; under `COCC1=C(C(=O)OC)C(c2ccccc2Cl)C(C(=O)OC)=C(COC)N1`, 137 to 138 °C; under `CCOCc1nc2c(N)nc3cc(N4CCOC4=O)ccc3c2n1CCCOC(C)C`, 166 to 167 °C.
Under `CCOC(=O)C(C(=O)OCC)=C1NC(=O)N(c2ccc([N+](=O)[O-])cc2OC)C1=O` stands 170 to 172 °C.
Molecule `COc1ccc(C2(C#N)CCC(=O)C(C(N)=O)C2)cc1OCCl` (configuration not stated) had a melting point of 154 to 155 °C.
Under `CC(CCc1ccc2c(c1)OCO2)NCC(O)c1cc(C(N)=O)cs1` (configuration not stated) stands 112 to 114 °C.
Consider `CCCn1nc2c(N)nc3ccccc3c2c1CC(C)(C)C(N)=O`, for which the melting point lay in the range of 224 to 225 °C.
The molecule `CC(=O)N[C@@H](C)c1ccc(C(=O)O)cc1` showed a melting point of 186 to 190 °C.
Under `Nc1c(Cl)cc(C(=CC(=O)N2CCOCC2)c2ccc(Cl)cc2)cc1Cl` stands 140 to 144 °C.
Under `COC(=O)C[C@@H](SCc1ccccc1)C(N)=O` stands 146 to 149 °C.

The record behind these values is a melting point compilation (Tetko et al.; mined from patent text by program, amines drawn as free bases though some values may be those of a salt).
